How the values were obtained:
[1] = target: T1, Epidermal growth factor receptor (Homo sapiens, UniProt P00533); test: Inhibition of EGFR measured as pGAT-biotin peptide phosphorylation in presence of 2.0 uM ATP by HTRF assay; format: functional
[2] = target: T1, Epidermal growth factor receptor; test: Inhibition of EGFR autophosphorylation in DiFi cells by ELISA; format: functional, cell-based
[3] = target: Vascular endothelial growth factor receptor 2 (Homo sapiens, UniProt P35968)
Sequence of Vascular endothelial growth factor receptor 2 (P35968 whole entry): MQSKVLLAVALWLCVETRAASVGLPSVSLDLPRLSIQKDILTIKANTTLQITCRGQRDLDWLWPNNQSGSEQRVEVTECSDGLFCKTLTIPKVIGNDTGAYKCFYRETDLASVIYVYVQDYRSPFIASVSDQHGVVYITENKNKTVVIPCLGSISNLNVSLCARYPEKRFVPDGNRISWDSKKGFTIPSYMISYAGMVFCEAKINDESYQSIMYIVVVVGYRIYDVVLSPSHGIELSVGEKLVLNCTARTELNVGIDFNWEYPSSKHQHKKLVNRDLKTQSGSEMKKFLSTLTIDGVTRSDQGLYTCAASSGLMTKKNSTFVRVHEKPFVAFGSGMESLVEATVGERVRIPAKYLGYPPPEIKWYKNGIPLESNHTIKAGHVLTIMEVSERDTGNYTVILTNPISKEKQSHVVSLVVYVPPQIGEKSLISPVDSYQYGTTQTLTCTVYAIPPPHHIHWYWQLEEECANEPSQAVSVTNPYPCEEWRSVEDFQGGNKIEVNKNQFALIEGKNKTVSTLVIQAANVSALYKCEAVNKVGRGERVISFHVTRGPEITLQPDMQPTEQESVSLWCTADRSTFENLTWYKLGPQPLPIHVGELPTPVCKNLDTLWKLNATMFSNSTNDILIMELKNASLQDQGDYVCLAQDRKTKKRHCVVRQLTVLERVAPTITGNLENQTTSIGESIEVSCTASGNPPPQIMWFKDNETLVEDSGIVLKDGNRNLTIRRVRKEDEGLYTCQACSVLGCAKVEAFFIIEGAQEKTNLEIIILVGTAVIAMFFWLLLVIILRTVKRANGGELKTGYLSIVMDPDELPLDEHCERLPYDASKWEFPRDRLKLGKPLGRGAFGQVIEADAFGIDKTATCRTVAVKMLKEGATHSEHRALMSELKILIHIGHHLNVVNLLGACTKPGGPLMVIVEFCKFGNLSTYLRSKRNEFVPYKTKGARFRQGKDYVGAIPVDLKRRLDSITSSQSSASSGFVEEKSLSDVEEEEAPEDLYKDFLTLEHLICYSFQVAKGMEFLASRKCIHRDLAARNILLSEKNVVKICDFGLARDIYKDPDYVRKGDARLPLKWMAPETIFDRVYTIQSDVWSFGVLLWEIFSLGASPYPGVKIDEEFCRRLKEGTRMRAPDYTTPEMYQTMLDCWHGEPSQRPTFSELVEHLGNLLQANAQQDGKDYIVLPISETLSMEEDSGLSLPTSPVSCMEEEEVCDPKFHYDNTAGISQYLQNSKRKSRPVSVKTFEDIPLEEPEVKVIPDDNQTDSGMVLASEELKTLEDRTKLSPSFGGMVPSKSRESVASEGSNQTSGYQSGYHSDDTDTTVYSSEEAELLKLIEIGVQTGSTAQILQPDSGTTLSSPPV
Description: Inhibition of KDR measured as pGAT-biotin peptide phosphorylation by HTRF assay

T1 sequence (P00533 whole entry): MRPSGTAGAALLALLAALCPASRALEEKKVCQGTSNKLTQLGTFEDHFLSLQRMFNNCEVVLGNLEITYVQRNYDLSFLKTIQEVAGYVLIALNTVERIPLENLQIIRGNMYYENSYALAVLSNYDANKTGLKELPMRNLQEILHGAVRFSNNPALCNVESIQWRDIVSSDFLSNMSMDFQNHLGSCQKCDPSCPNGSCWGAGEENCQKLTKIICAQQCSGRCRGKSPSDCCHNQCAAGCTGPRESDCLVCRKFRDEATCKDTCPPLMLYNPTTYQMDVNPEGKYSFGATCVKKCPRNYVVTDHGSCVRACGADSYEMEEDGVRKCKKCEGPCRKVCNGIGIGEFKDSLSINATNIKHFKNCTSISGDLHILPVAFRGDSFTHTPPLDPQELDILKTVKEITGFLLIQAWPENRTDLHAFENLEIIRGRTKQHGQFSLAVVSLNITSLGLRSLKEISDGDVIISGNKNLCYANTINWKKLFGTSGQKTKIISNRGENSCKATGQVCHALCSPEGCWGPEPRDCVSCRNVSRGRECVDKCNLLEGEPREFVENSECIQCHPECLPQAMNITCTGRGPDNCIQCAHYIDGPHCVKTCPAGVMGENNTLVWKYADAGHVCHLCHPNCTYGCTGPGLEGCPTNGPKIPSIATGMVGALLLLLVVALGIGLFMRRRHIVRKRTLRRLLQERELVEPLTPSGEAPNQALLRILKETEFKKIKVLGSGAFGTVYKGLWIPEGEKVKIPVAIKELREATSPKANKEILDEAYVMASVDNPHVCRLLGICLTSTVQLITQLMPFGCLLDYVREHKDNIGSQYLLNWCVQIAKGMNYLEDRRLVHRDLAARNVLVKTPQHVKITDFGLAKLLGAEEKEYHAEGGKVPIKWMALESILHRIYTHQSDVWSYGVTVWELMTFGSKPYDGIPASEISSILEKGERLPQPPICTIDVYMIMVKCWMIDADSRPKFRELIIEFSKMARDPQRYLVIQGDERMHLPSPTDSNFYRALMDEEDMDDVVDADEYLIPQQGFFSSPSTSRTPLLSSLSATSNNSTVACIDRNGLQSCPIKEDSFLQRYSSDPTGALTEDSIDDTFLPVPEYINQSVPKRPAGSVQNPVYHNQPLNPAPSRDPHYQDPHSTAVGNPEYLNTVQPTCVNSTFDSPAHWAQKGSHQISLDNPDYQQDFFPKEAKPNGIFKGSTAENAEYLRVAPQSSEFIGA

`COc1cc2c(cc1OC)Oc1ncnc(Oc3cccc(Cl)c3F)c1NC2` gave an IC50 [1] of 4.6 µM.
`COc1cc2c(cc1OC)Nc1ncnc(N[C@H](C)c3ccccc3)c1NC2` gave an IC50 [1] of 0.15 µM, an IC50 [2] of 0.5 µM and an IC50 [3] of 2 µM.
`COc1cc2c(cc1OC)Sc1ncnc(Oc3cccc(Cl)c3F)c1NC2` gave an IC50 [1] of 19.3 µM.
In the case of `COc1cc2c(cc1OC)Sc1ncnc(Sc3cccc(Cl)c3)c1NC2`, the IC50 [1] is reported as 2.9 µM.
In the case of `COc1cc2c(cc1OC)Sc1nc(C)nc(Nc3ccc(C)c(Br)c3)c1NC2`, the IC50 [1] is reported as > 100 µM.
`COc1cc2c(cc1OC)Oc1ncnc(Nc3ccc(F)c(Cl)c3)c1NC2` gave an IC50 [2] of 0.7 µM.
For `COc1cc2c(cc1OC)Sc1ncnc(Sc3cccc(Br)c3)c1NC2`, the IC50 [1] was 1.6 µM.
`COc1cc2c(cc1OC)Sc1ncnc(Nc3ccc(F)c(Cl)c3)c1NC2` gave an IC50 [1] of 8.2 µM.
Compound `COc1cc2c(cc1OC)Oc1ncnc(Nc3cc(Cl)ccc3F)c1NC2` has an IC50 [1] of 1.1 µM and an IC50 [2] of 3.9 µM.
`COc1cc2c(cc1OC)Oc1ncnc(Nc3cccc(Cl)c3F)c1NC2` was tested, and the IC50 [1] was 0.3 µM and the IC50 [2] was 4.6 µM.
In the case of `COc1cc2c(cc1OC)Oc1ncnc(Sc3cccc(Br)c3)c1NC2`, the IC50 [1] is reported as 1.3 µM, the IC50 [2] is reported as 1.2 µM and the IC50 [3] is reported as > 10 µM.
`COc1cc2c(cc1OC)Sc1ncnc(Nc3cccc(Cl)c3F)c1NC2` was tested, and the IC50 [1] was 62.9 µM.
`COc1cc2c(cc1OC)Sc1nc(C)nc(Nc3ccc(F)c(Cl)c3)c1NC2` was tested, and the IC50 [1] was 45.9 µM.
In the case of `COc1cc2c(cc1OC)Sc1nc(C)nc(Nc3ccc(Cl)c(C)c3)c1NC2`, the IC50 [1] is reported as > 100 µM.
For `COc1cc2c(cc1OC)Sc1ncnc(Nc3cccc(Br)c3)c1NC2`, the IC50 [1] was 5.9 µM.
`COc1cc2c(cc1OC)Oc1ncnc(Oc3cccc(Br)c3)c1NC2` was tested, and the IC50 [1] was 0.7 µM, the IC50 [2] was 1.8 µM and the IC50 [3] was > 10 µM.
For `COc1cc2c(cc1OC)Nc1ncnc(NCc3ccccc3)c1NC2`, the IC50 [1] was 0.2 µM, the IC50 [2] was 0.9 µM and the IC50 [3] was 2 µM.
With `COc1cc2c(cc1OC)Oc1ncnc(Nc3ccc4c[nH]nc4c3)c1NC2` the IC50 [1] was 1.2 µM and the IC50 [3] was > 10 µM.
In the case of `COc1cc2c(cc1OC)Sc1nc(C)nc(Nc3cccc(Cl)c3F)c1NC2`, the IC50 [1] is reported as > 100 µM.
With `COc1cc2c(cc1OC)Sc1nc(C)nc(Nc3ccc4[nH]cnc4c3)c1NC2` the IC50 [1] was 14.5 µM.
In the case of `COc1cc2c(cc1OC)Sc1ncnc(Nc3ccc4c[nH]nc4c3)c1NC2`, the IC50 [1] is reported as 14.1 µM.
For `COc1cc2c(cc1OC)Sc1ncnc(N(C)c3cccc(Cl)c3)c1NC2`, the IC50 [1] was 27 µM.
In the case of `COc1cc2c(cc1OC)Oc1nc(C)nc(Nc3cccc(Cl)c3F)c1NC2`, the IC50 [1] is reported as > 100 µM and the IC50 [3] is reported as > 10 µM.
For `COc1cc2c(cc1OC)Sc1ncnc(Oc3cccc(Br)c3)c1NC2`, the IC50 [1] was 21.7 µM.
Work on `COc1cc2c(cc1OC)Sc1nc(C)nc(Nc3ccc4c[nH]nc4c3)c1NC2` yielded an IC50 [1] of 24.6 µM.
`COc1cccc(CNc2ncnc3c2NCc2cc(OC)c(OC)cc2N3)c1` was tested, and the IC50 [1] was 0.8 µM, the IC50 [2] was 11.7 µM and the IC50 [3] was 2 µM.
`COc1cc2c(cc1OC)Oc1ncnc(Nc3cccc(C)c3)c1NC2` was tested, and the IC50 [1] was 7.4 µM, the IC50 [2] was 4.4 µM and the IC50 [3] was > 10 µM.
`C#Cc1cccc(Nc2ncnc3c2NCc2cc(OC)c(OC)cc2O3)c1` was tested, and the IC50 [1] was 3.2 µM and the IC50 [2] was 0.9 µM.
In the case of `COc1cc2c(cc1OC)Sc1nc(C)nc(Nc3ccc4ncsc4c3)c1NC2`, the IC50 [1] is reported as 15.2 µM.
For `COc1cc2c(cc1OC)Nc1ncnc(NCc3ccc(F)c(Cl)c3)c1NC2`, the IC50 [1] was 0.3 µM, the IC50 [2] was 1.6 µM and the IC50 [3] was 2 µM.
With `COc1cc2c(cc1OC)Nc1ncnc(Nc3cccc(Br)c3)c1NC2` the IC50 [1] was 1.5 µM.
`COc1cc2c(cc1OC)Oc1ncnc(Oc3cccc(Br)c3)c1N(C)C2` gave an IC50 [1] of 1.2 µM and an IC50 [2] of 6.1 µM.
In the case of `COc1cc2c(cc1OC)Sc1nc(C)nc(Nc3ccc4ccccc4c3)c1NC2`, the IC50 [1] is reported as 17 µM.
With `COc1cc2c(cc1OC)Oc1ncnc(Nc3ccc(F)cc3)c1NC2` the IC50 [1] was 7.1 µM, the IC50 [2] was 7.6 µM and the IC50 [3] was > 10 µM.
In the case of `COc1cc2c(cc1OC)Oc1ncnc(Nc3cccc(Br)c3)c1NC2`, the IC50 [1] is reported as 0.3 µM, the IC50 [2] is reported as 0.5 µM and the IC50 [3] is reported as > 10 µM.
`COc1cc2c(cc1OC)Sc1ncnc(Nc3ccc4ncsc4c3)c1NC2` was tested, and the IC50 [1] was > 100 µM.
`COc1cc2c(cc1OC)Sc1nc(C)nc(Nc3ccc4c(c3)CN=N4)c1NC2` was tested, and the IC50 [1] was 16.2 µM.
With `COc1cc2c(cc1OC)Sc1ncnc(N(C)c3cccc(Br)c3)c1NC2` the IC50 [1] was > 100 µM.
For `COc1cc2c(cc1OC)Oc1ncnc(Sc3cccc(Cl)c3)c1NC2`, the IC50 [1] was 1 µM, the IC50 [2] was 2.4 µM and the IC50 [3] was > 10 µM.
In the case of `COc1cc2c(cc1OC)Oc1ncnc(Nc3ccc(Br)cc3)c1NC2`, the IC50 [1] is reported as 8.7 µM, the IC50 [2] is reported as > 100 µM and the IC50 [3] is reported as > 10 µM.
For `COc1cc2c(cc1OC)Oc1ncnc(Nc3ccc4ccccc4c3)c1NC2`, the IC50 [1] was 0.5 µM, the IC50 [2] was 2.3 µM and the IC50 [3] was > 10 µM.
With `COc1cc2c(cc1OC)Oc1ncnc(Oc3ccc(F)c(Cl)c3)c1N(C)C2` the IC50 [1] was 10.8 µM and the IC50 [3] was > 10 µM.
Compound `COc1cc2c(cc1OC)Sc1nc(C)nc(Nc3cccc(Br)c3)c1NC2` has an IC50 [1] of 30.7 µM.
In the case of `COc1cc2c(cc1OC)Oc1ncnc(Nc3ccc4ncsc4c3)c1NC2`, the IC50 [1] is reported as 5.6 µM and the IC50 [3] is reported as > 10 µM.

Source: ChEMBL document CHEMBL1149491, “Novel tricyclic azepine derivatives: Biological evaluation of pyrimido[4,5-b]-1,4-benzoxazepines, thiazepines, and diazepines as inhibitors of the epidermal growth factor receptor tyrosine kinase” (Bioorg Med Chem Lett, 2006)
